Test results: patent US20190150455A1, “COMPOSITIONS OF SAPONINS AND PLANT EXTRACTS” (Y&B MOTHER'S CHOICE LTD., priority 2016, published 2019)

System: E. coli, S. aureus, P. aeruginosa, C. albicans and A. Brasiliensis
Assay: Challenge test, statements on all tested microorganisms together
Type: cell-based
Conditions: non-preserved cream
Experimental: The various lotion or cleansing formulae were contaminated by suitable microorganisms (bacteria and yeast), as described below. The so-prepared samples were incubated as described below. Using serial dilutions and plate counts, aliquots were taken during the incubation period for determining microorganism count. Tested Microorganisms: E. coli (ATCC 8739); S. aureus (ATCC 6538); P. aeruginosa (ATCC 9027); C. albicans (ATCC 10231) and A. Brasiliensis (ATCC 16404)). Bacteria, yeast, and mold suspensions were prepared according to ISO 11930; TSA culture medium for the bacteria was obtained from Hylab (Cat. No PD-087/A); PDA culture medium for A. brasiliensis was obtained from Hylab (Cat. No PD-043); SDA culture medium for C. albicans was obtained from Hylab (Cat. No PD-044); 0.1% peptone was prepared by mixing 1 g/l Peptone in sterile water. The test was performed according ISO 11930. Each sample was contaminated with microorganisms to obtain the range of 10^5-10^6 cfulml. The inoculated formulation was mixed thoroughly to ensure a homogeneous distribution of the inoculum. Samples were stored at 25° C. Each sample was sampled in intervals of 2, 7, 14, 21 and 28 days, according to the following procedure: 100 μl of the inoculated formulation was streaked on suitable agar medium. The plates were incubated at 37° C. for bacteria and 25° C. for yeast and mold. […]

## CCCCCCCC(=O)OCC(O)CO (stereo not shown) [glyceryl caprylate]
  Antimicrobial activity against the tested microorganisms, in words: improved the antimicrobial activity of the tested formulations
